The source of these data is publication PMC3742649 (Endocrine, 2013).

pIC50, pKi: −log10 of the molar value. “Also recorded” adds a separate entry of the source. Where a SMILES comes first, the peptide text is derived from it.

The target in test [1] is T1, novel non-AT1, non-AT2 angiotensin binding site (neurolysin) (Rattus norvegicus, UniProt P42676). Put plainly: Competition binding of 125I-Sar1,Ile8 Ang II in rat testis membranes. To be noted: for inhibition of 125I-SI Ang II binding in testis at concentrations up to 1 mM: rat testis.
Test [2] concerns the target T1, novel non-AT1, non-AT2 angiotensin binding site (neurolysin). As to the kind of experiment: Competition binding of 125I-Sar1,Ile8 Ang II in rat brain membranes. As to conditions: for inhibition of 125I-SI Ang II binding in brain at concentrations up to 1 mM: rat brain.
A further test has as its target neurolysin. To be noted: read-out: KI for neurolysin; reported value; cited from earlier work.
The mark [3] stands for this setting: listed as Proline-Isoleucine dipeptide.

T1 sequence (P42676 38-704): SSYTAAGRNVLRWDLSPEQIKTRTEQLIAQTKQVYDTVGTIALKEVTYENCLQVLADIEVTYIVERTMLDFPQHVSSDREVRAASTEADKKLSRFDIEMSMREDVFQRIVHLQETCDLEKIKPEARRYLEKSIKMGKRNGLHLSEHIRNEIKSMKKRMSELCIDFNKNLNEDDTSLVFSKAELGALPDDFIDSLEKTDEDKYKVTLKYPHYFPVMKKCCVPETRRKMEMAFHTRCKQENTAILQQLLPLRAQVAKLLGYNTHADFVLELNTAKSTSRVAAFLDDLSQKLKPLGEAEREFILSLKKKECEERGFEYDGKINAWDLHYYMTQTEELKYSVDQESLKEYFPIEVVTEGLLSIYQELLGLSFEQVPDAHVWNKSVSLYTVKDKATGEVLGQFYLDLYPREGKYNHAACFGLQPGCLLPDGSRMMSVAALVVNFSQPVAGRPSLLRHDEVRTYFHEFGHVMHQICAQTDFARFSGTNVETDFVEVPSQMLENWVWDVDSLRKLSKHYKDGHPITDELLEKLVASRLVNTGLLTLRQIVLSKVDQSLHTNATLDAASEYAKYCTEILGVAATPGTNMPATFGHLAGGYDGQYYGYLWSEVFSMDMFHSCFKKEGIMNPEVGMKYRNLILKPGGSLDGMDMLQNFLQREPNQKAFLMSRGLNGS

As a reminder, the pIC50 is the negative decadic logarithm of the IC50, by convention in mol/L. Read a high pIC50 as a small IC50. With `CC[C@H](C)[C@H](NC(=O)[C@H](CCCN=C(N)N)NC(=O)[C@H](CCCN=C(N)N)NC(=O)[C@H](CC(C)C)NC(=O)[C@H](Cc1ccccc1)NC(=O)CNC(=O)CNC(=O)[C@@H](N)Cc1ccc(O)cc1)C(=O)O` [Dynorphin A (1–8)], the pIC50 in test [1] was 5.66.

By pKi is commonly meant −log10 of the Ki, conventionally taken in molar units. As for `CC[C@H](C)[C@H](NC(=O)[C@@H]1CCCN1)C(=O)O` [Pro-Ile, proline-isoleucine dipeptide] (H-Pro-Ile-OH), the “inhibition of 125I-SI Ang II binding in brain at concentrations up to 1 mM” value in test [2] is “no inhibition; also recorded: failed to inhibit; also recorded: did not inhibit”; in test [2] (setting [3]), “inactive”. Further, the pKi on neurolysin was 4.05. Moreover, the results for the “inhibition of 125I-SI Ang II binding in testis at concentrations up to 1 mM” value in test [1] and in test [1] (setting [3]) were “no inhibition; also recorded: failed to inhibit; also recorded: did not inhibit” and “inactive”, respectively.

Turning to `CC[C@H](C)[C@H](NC(=O)[C@@H]1CCCN1C(=O)[C@H](Cc1c[nH]cn1)NC(=O)[C@@H](NC(=O)[C@H](Cc1ccc(O)cc1)NC(=O)[C@@H](NC(=O)[C@H](CCCN=C(N)N)NC(=O)CNC)C(C)C)[C@@H](C)CC)C(=O)O` [SI Ang II, Sar^1, Ile^8 angiotensin II], the pIC50 in test [2] (IC50 in brain, rat brain membranes, Figure 1 Panel A) is 7.09; in test [1] (IC50 in testis, rat testis membranes, Figure 1 Panel A), 6.90.
